Usually EC50 stands for the concentration that produces a half-maximal response.

Data on 15 molecules can be found in patent US20220323455A1, “FUSED HETEROCYCLIC DERIVATIVES AS ANTIVIRAL AGENTS” (priority 2019, published 2022).

The test deals with HBV. Briefly: HBV replication inhibition assay (BDNA assay) in HepG2.2.15 cells. The format is cell-based, Hepatitis B virus. The conditions noted are these: 6 days, encapsidated HBV DNA in supernatant. The essentials: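 HepG2.2.15 cells were dosed with serially diluted compound (0.5% DMSO), with compound and medium renewed at day 3. Day-6 supernatants were DNase-treated and proteinase K-lysed, and encapsidated HBV DNA was quantified by branched-DNA assay. Percent inhibition was set against DMSO controls and EC50 obtained by nonlinear fit.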

For the molecule `C[C@@H]1Cc2nn3c(c2CN1C(=O)Nc1ccnc(C(F)F)c1F)C(F)(F)CC(O)CC3` (single isomer, unassigned) [Example 122, (3R,9R*)—N-(2-(Difluoromethyl)-3-fluoropyridin-4-yl)-11,11-difluoro-9-hydroxy-3-methyl-3,4,8,9,10,11-hexahydro-1H-pyrido[4′,3′:3,4]pyrazolo[1,5-a]azepine-2(7H)-carboxamide], the EC50 is 2 nM.
Consider `C[C@@H]1Cc2nn3c(c2CN1C(=O)Nc1ccnc(Br)c1F)C(F)=CC(O)CC3` (single isomer, unassigned) [Example 124, (3R,9S*)—N-(2-Bromo-3-fluoropyridin-4-yl)-11-fluoro-9-hydroxy-3-methyl-3,4,8,9-tetrahydro-1H-pyrido[4′,3:3,4]pyrazolo[1,5-a]azepine-2(7H)-carboxamide], for which the concentration giving a half-maximal response (EC50) is 26 nM.
For `C[C@@H]1Cc2nn3c(c2CN1C(=O)Nc1ccc(F)c(C#N)c1)C(F)(F)CC(O)(CO)CC3` (single isomer, unassigned) [Example 125, (3R,9R*)—N-(3-Cyano-4-fluorophenyl)-11,11-difluoro-9-hydroxy-9-(hydroxymethyl)-3-methyl-3,4,8,9,10,11-hexahydro-1H-pyrido[4′,3′:3,4]pyrazolo[1,5-a]azepine-2(7H)-carboxamide], the EC50 turned out to be 14 nM.
Regarding `C[C@@H]1Cc2nn3c(c2CN1C(=O)Nc1ccc(F)c(C#N)c1)C(F)(F)CC(O)(CO)CC3` (single isomer, unassigned) [Example 126, (3R,9S*)—N-(3-Cyano-4-fluorophenyl)-11,11-difluoro-9-hydroxy-9-(hydroxymethyl)-3-methyl-3,4,8,9,10,11-hexahydro-1H-pyrido[4′,3′:3,4]pyrazolo[1,5-a]azepine-2(7H)-carboxamide], the EC50 stood at 5 nM.
As to `C[C@@H]1Cc2nn3c(c2CN1C(=O)Nc1ccnc(Br)c1F)C(F)(F)CC(O)(CF)CC3` (single isomer, unassigned) [Example 129, (3R,9S*)—N-(2-Bromo-3-fluoropyridin-4-yl)-11,11-difluoro-9-(fluoromethyl)-9-hydroxy-3-methyl-3,4,8,9,10,11-hexahydro-1H-pyrido[4′,3′:3,4]pyrazolo[1,5-a]azepine-2(7H)-carboxamide], the concentration for a half-maximal effect (EC50) was 6 nM.
On the same count and under the same terms, then `C[C@@H]1Cc2nn3c(c2CN1C(=O)Nc1ccc(F)c(C#N)c1)C(F)(F)CC(O)(CF)CC3` (single isomer, unassigned) [Example 130, (3R,9S*)—N-(3-Cyano-4-fluorophenyl)-11,11-difluoro-9-(fluoromethyl)-9-hydroxy-3-methyl-3,4,8,9,10,11-hexahydro-1H-pyrido[4′,3′:3,4]pyrazolo[1,5-a]azepine-2(7H)-carboxamide], with 2 nM; and `N#Cc1cc(NC(=O)N2CCc3nn4c(c3C2)C(F)(F)CC(CO)CC4)ccc1F` (single isomer, unassigned) [Example 134, (S*)—N-(3-Cyano-4-fluorophenyl)-11,11-difluoro-9-(hydroxymethyl) -3,4,8,9,10,11-hexahydro-1H-pyrido[4′,3′:3,4]pyrazolo[1,5-a]azepine-2(7H)-carboxamide], with 17 nM.
Regarding `N#Cc1cc(NC(=O)N2CCc3nn4c(c3C2)C(F)(F)CC(CO)CC4)ccc1F` (single isomer, unassigned) [Example 136, (R*)—N-(3-Cyano-4-fluorophenyl)-11,11-difluoro-9-(hydroxymethyl) -3,4,8,9,10,11-hexahydro-1H-pyrido[4′,3′:3,4]pyrazolo[1,5-a]azepine-2(7H)-carboxamide], the EC50 amounted to 5 nM.
As for `O=C(Nc1ccnc(Br)c1F)N1CCc2nn3c(c2C1)C(F)(F)CC(O)CC3` (single isomer, unassigned) [Example 137, (R*)—N-(2-Bromo-3-fluoropyridin-4-yl)-11,11-difluoro-9-hydroxy-3,4,8,9,10,11-hexahydro-1H-pyrido[4′,3′:3,4]pyrazolo[1,5-a]azepine-2(7H)-carboxamide], the concentration giving a half-maximal response (EC50) worked out at 2 nM.
In the case of `N#Cc1cc(NC(=O)N2CCc3nn4c(c3C2)C(F)(F)CC(O)CC4)ccc1F` (single isomer, unassigned) [Example 138, (R*)—N-(3-Cyano-4-fluorophenyl)-11,11-difluoro-9-hydroxy-3,4,8,9,10,11-hexahydro-1H-pyrido[4′,3′:3,4]pyrazolo[1,5-a]azepine-2(7H)-carboxamide], the half-maximal effective concentration (EC50) was 1 nM.
With `O=C(Nc1ccnc(C(F)F)c1F)N1CCc2nn3c(c2C1)C(F)(F)CC(O)CC3` (single isomer, unassigned) [Example 139, (R*)—N-(2-(Difluoromethyl)-3-fluoropyridin-4-yl)-11,11-difluoro-9-hydroxy-3,4,8,9,10,11-hexahydro-1H-pyrido[4′,3′:3,4]pyrazolo[1,5-a]azepine-2(7H)-carboxamide], the EC50 came out at 21 nM.
For the molecule `O=C(Nc1ccnc(Br)c1F)N1CCc2nn3c(c2C1)C(F)(F)CC(O)CC3` (single isomer, unassigned) [Example 140, (S*)—N-(2-Bromo-3-fluoropyridin-4-yl)-11,11-difluoro-9-hydroxy-3,4,8,9,10,11-hexahydro-1H-pyrido[4′,3′:3,4]pyrazolo[1,5-a]azepine-2(7H)-carboxamide], the concentration for a half-maximal effect (EC50) is 27 nM.
`N#Cc1cc(NC(=O)N2CCc3nn4c(c3C2)C(F)(F)CC(O)CC4)ccc1F` (single isomer, unassigned) [Example 141, (S*)—N-(3-Cyano-4-fluorophenyl)-11,11-difluoro-9-hydroxy-3,4,8,9,10,11-hexahydro-1H-pyrido[4′,3′:3,4]pyrazolo[1,5-a]azepine-2(7H)-carboxamide]: the EC50 came to 16 nM.
The same measure, in the same setting: then `O=C(Nc1ccnc(C(F)F)c1F)N1CCc2nn3c(c2C1)C(F)(F)CC(O)CC3` (single isomer, unassigned) [Example 142, (S*)—N-(2-(Difluoromethyl)-3-fluoropyridin-4-yl)-11,11-difluoro-9-hydroxy-3,4,8,9,10,11-hexahydro-1H-pyrido[4′,3′:3,4]pyrazolo[1,5-a]azepine-2(7H)-carboxamide], with 46 nM.
With `CC1Cc2nn3c(c2CN1C(=O)Nc1ccc(F)c(C#N)c1)C(F)(F)C[C@H](CO)CC3` (stereo partly drawn) [Example 131], under “Hepatitis B virus, HepG2.2.15, 144 h”, the EC50 was 3 nM.
